In patent US8143315B2, “Salts of the active substance rasagiline” (priority 2006, dated 2012):
Counter-ions that a name gives are not always drawn. Like-named read-outs stand apart in the source and are kept apart here.

Legend:
[1] = Determination of solubility; conditions: for pH of the saturated solution / solubility: one-hour storage at 37° C.; for solubility in words: general description; for solubility: HPLC
[2] = Determination of hygroscopicity (storage in humidity chambers); assay type: physicochemical; conditions: storage below 93% humidity, room temperature
[3] = for appearance / total content of chemical contaminations / water content: 40° C./75% relative humidity, open glass bottle; for appearance after storage under humid conditions: 40° C., 75% relative humidity in an open glass bottle (general description, time not stated)
[4] = Particle size distribution by laser diffraction; conditions: for d(0.1) ± SD / d(0.5) ± SD / d(0.9) ± SD: average of three measurement cycles, dispersant low-viscosity paraffin
[5] = tablets, 60° C. closed glass bottle
[6] = for appearance: 60° C., closed glass bottle; for appearance / agglomerates of the salt as produced: immediately after production (general description); for formation of agglomerates after long storage: above all dry storage (general description); for agglomerates after storage: storage in a closed glass bottle (general description, time not stated)
[7] = Granulation 1 with mannitol (55%)
[8] = Direct compression without mannitol, 4 weeks
[9] = Direct compression without mannitol, initial value
[10] = Granulation 1 with mannitol (55%), 4 weeks
[11] = Granulation 1 with mannitol (55%), initial value
[12] = Granulation 2 without mannitol, 4 weeks
[13] = Granulation 2 without mannitol, initial value

Molecule	solubility in citric acid solution [7]	solubility in citric acid solution (Granulation 2 without mannitol)	pH of the saturated solution ([1]; 0.1 N HCl)	pH of the saturated solution ([1]; Demineralized water)	pH of the saturated solution ([1]; USP acetate buffer, pH 4.5)	water absorption (hygroscopicity) [2]	fraction ≦ 250 μm [4] [%]	d(0.1) ± SD [4] [μm]	d(0.5) ± SD [4] [μm]	d(0.9) ± SD [4] [μm]	portion of decomposed active substance [5, 8] [%]	portion of decomposed active substance [5, 9] [%]	portion of decomposed active substance [5, 10] [%]	portion of decomposed active substance [5, 11] [%]	portion of decomposed active substance [5, 12] [%]	portion of decomposed active substance [5, 13] [%]	appearance ([6]; 4 weeks)	appearance ([6]; 8 weeks)	appearance ([6]; 12 weeks)	appearance / agglomerates of the salt as produced [6]	also measured
C#CCN[C@@H]1CCc2ccccc21.C#CCN[C@@H]1CCc2ccccc21.O=S(=O)(O)CCS(=O)(=O)O [Rasagiline edisilate, Rasagiline Edisilate]	very high	very high	1.0	4.4	4.4	no water absorption	100.0	2.7 ± 0.01	12.8 ± 0.08	35.1 ± 0.36	0.40	0.00	1.4	0.00	0.79	0.00	unchanged	unchanged	unchanged	white crystal powder which is free of agglomerates	pH of the saturated solution ([1]; USP phosphate buffer, pH 6.8): 6.2; solubility in words [1]: dissolves very rapidly and well; appearance ([3]; 4 weeks): unchanged; appearance ([3]; 8 weeks): unchanged; appearance ([3]; 12 weeks): unchanged; formation of agglomerates after long storage [6]: does not form any agglomerates
C#CCN[C@@H]1CCc2ccccc21 [Rasagiline hydrochloride]	–	–	–	–	–	–	–	–	–	–	–	–	–	–	–	–	–	–	–	–	portion of decomposed active substance ([5]; Direct compression without mannitol, 4 weeks, hydrochloride): 1.5%; portion of decomposed active substance ([5]; Granulation 1 with mannitol (55%), 4 weeks, hydrochloride): 2.4%; portion of decomposed active substance ([5]; Granulation 2 without mannitol, 4 weeks, hydrochloride): 1.9%
C#CCN[C@@H]1CCc2ccccc21 [Rasagiline mesylate, rasagiline mesylate]	very high	very high	–	–	–	absorbed large amounts of water and liquefied	100.0	13.6 ± 0.05	40.5 ± 0.25	85.7 ± 0.89	0.46	0.00	2.6	0.00	1.3	0.00	–	–	–	–	appearance after storage under humid conditions [3]: sticky powder which is difficult to process; agglomerates after storage [6]: agglomerates
Rasagiline Oxalate	–	–	1.2	2.7	3.4	no water absorption	98.1	19.9 ± 0.02	53.0 ± 0.09	120.5 ± 0.66	–	–	–	–	–	–	unchanged	unchanged	unchanged	white crystal powder which is free of agglomerates	solubility ([1]; 0.1 N HCl): 29.9 mg/mL; solubility ([1]; Demineralized water): 19.7 mg/mL; solubility ([1]; USP acetate buffer, pH 4.5): 24.3 mg/mL; pH of the saturated solution ([1]; USP phosphate buffer, pH 6.8): 3.4; solubility ([1]; USP phosphate buffer, pH 6.8): 24.2 mg/mL; solubility in words [1]: much more difficult to dissolve; formation of agglomerates after long storage [6]: does not form any agglomerates
rasagiline phosphate	high	high	–	–	–	–	–	–	–	–	2.9	0.00	3.0	0.00	2.5	0.00	–	–	–	–	appearance after storage under humid conditions [3]: sticky powder which is difficult to process; total content of chemical contaminations ([3]; 4 weeks): 0.05%; water content ([3]; 4 weeks): 0.2%; total content of chemical contaminations ([3]; 8 weeks): 0.19%; water content ([3]; 8 weeks): 0.4%; total content of chemical contaminations ([3]; t0): 0.0%; water content ([3]; t0): 0.1%; agglomerates after storage [6]: agglomerates
rasagiline tartrate	–	–	–	–	–	–	97.2	5.0 ± 0.04	40.9 ± 0.57	161.2 ± 1.34	2.5	0.00	3.1	0.00	2.8	0.00	unchanged	unchanged	unchanged	undesired agglomerates	appearance ([3]; 4 weeks): unchanged; appearance ([3]; 8 weeks): unchanged; appearance ([3]; 12 weeks): unchanged
